Reference: patent publication US11331369B2, “Endoparasitic depsipeptides” (Zoetis Services LLC, priority 2017, dated 2022)

What follows are compounds tested on microfilariae of Dirofilaria immitis (assay: Dirofilaria immitis, Microfilaria (DiMF) In vitro Assay). Settings: 72 h, read-out: DiMF Minimum Effective Dose (MED), approximately 72 hours incubation, microfilariae assessed for survival or paralysis.
Format: cell-based
Work on CC(C)C[C@H]1C(=O)O[C@H](Cc2ccc(Cn3nc(CO)cc3CO)cc2)C(=O)N(C)[C@@H](CC(C)C)C(=O)O[C@H](C)C(=O)N(C)[C@@H](CC(C)C)C(=O)O[C@H](Cc2ccc(Cn3nc(C#N)cc3C#N)cc2)C(=O)N(C)[C@@H](CC(C)C)C(=O)O[C@H](C)C(=O)N1C [Example 1a-2, 1-(4-(((2R,5S,8R,11S,14R,17S,20R,23S)-14-(4-((3,5-bis(hydroxymethyl)-1H-pyrazol-1-yl)methyl)benzyl)-5,11,17,23-tetraisobutyl-4,8,10,16,20,22-hexamethyl-3,6,9,12,15,18,21,24-octaoxo-1,7,13,19-tetraoxa-4,10,16,22-tetraazacyclotetracosan-2-yl)methyl)benzyl)-1H-pyrazole-3,5-dicarbonitrile] yielded a minimal effective concentration of 0.001 to 0.01 µM. CC(C)C[C@H]1C(=O)O[C@H](Cc2ccc(Cn3nc(-c4ccco4)cc3CO)cc2)C(=O)N(C)[C@@H](CC(C)C)C(=O)O[C@H](C)C(=O)N(C)[C@@H](CC(C)C)C(=O)O[C@H](Cc2ccc(Cn3nc(C#N)cc3C#N)cc2)C(=O)N(C)[C@@H](CC(C)C)C(=O)O[C@H](C)C(=O)N1C [Example 1a-3, 1-(4-(((2R,5S,8R,11S,14R,17S,20R,23S)-14-(4-((3-(furan-2-yl)-5-(hydroxymethyl)-1H-pyrazol-1-yl)methyl)benzyl)-5,11,17,23-tetraisobutyl-4,8,10,16,20,22-hexamethyl-3,6,9,12,15,18,21,24-octaoxo-1,7,13,19-tetraoxa-4,10,16,22-tetraazacyclotetracosan-2-yl)methyl)benzyl)-1H-pyrazole-3,5-dicarbonitrile] gave a minimal effective concentration of 0.01 to 0.1 µM. CC(C)C[C@H]1C(=O)O[C@H](Cc2ccc(Cn3nc(C4CC4)cc3C3CC3)cc2)C(=O)N(C)[C@@H](CC(C)C)C(=O)O[C@H](C)C(=O)N(C)[C@@H](CC(C)C)C(=O)O[C@H](Cc2ccc(Cn3nc(-c4ccco4)cc3CO)cc2)C(=O)N(C)[C@@H](CC(C)C)C(=O)O[C@H](C)C(=O)N1C [Example 1a-6, (3S,6R,9S,12R,15S,18R,21S,24R)-6-(4-((3,5-dicyclopropyl-1H-pyrazol-1-yl)methyl)benzyl)-18-(4-((3-(furan-2-yl)-5-(hydroxymethyl)-1H-pyrazol-1-yl)methyl)benzyl)-3,9,15,21-tetraisobutyl-4,10,12,16,22,24-hexamethyl-1,7,13,19-tetraoxa-4,10,16,22-tetraazacyclotetracosan-2,5,8,11,14,17,20,23-octaone] was tested, and the minimal effective concentration was 0.01 to 0.1 µM. In the case of Cc1nn(Cc2ccc(C[C@H]3OC(=O)[C@H](CC(C)C)N(C)C(=O)[C@@H](C)OC(=O)[C@H](CC(C)C)N(C)C(=O)[C@@H](Cc4ccc(Cn5nc(C6CC6)cc5C5CC5)cc4)OC(=O)[C@H](CC(C)C)N(C)C(=O)[C@@H](C)OC(=O)[C@H](CC(C)C)N(C)C3=O)cc2)cc1CO [Example 1a-8, (3S,6R,9S,12R,15S,18R,21S,24R)-6-(4-((3,5-dicyclopropyl-1H-pyrazol-1-yl)methyl)benzyl)-18-(4-((4-(hydroxymethyl)-3-methyl-1H-pyrazol-1-yl)methyl)benzyl)-3,9,15,21-tetraisobutyl-4,10,12,16,22,24-hexamethyl-1,7,13,19-tetraoxa-4,10,16,22-tetraazacyclotetracosan-2,5,8,11,14,17,20,23-octaone], the minimal effective concentration is reported as 0.01 to 0.1 µM. Compound CC(C)C[C@H]1C(=O)O[C@H](Cc2ccc(Cn3cc(-c4ccccc4)cn3)cc2)C(=O)N(C)[C@@H](CC(C)C)C(=O)O[C@H](C)C(=O)N(C)[C@@H](CC(C)C)C(=O)O[C@H](Cc2ccc(Cn3cccn3)cc2)C(=O)N(C)[C@@H](CC(C)C)C(=O)O[C@H](C)C(=O)N1C [Example 1a-15, (3S,6R,9S,12R,15S,18R,21S,24R)-6-(4-((1H-pyrazol-1-yl)methyl)benzyl)-3,9,15,21-tetraisobutyl-4,10,12,16,22,24-hexamethyl-18-(4-((4-phenyl-1H-pyrazol-1-yl)methyl)benzyl)-1,7,13,19-tetraoxa-4,10,16,22-tetraazacyclotetracosan-2,5,8,11,14,17,20,23-octaone] has a minimal effective concentration of 0.01 to 0.1 µM. In the case of CC(C)C[C@H]1C(=O)O[C@H](Cc2ccc(Cn3cc(-c4ccc(Cl)cc4)cn3)cc2)C(=O)N(C)[C@@H](CC(C)C)C(=O)O[C@H](C)C(=O)N(C)[C@@H](CC(C)C)C(=O)O[C@H](Cc2ccc(Cn3cccn3)cc2)C(=O)N(C)[C@@H](CC(C)C)C(=O)O[C@H](C)C(=O)N1C [Example 1a-18, (3S,6R,9S,12R,15S,18R,21S,24R)-6-(4-((1H-pyrazol-1-yl)methyl)benzyl)-18-(4-((4-(4-chlorophenyl)-1H-pyrazol-1-yl)methyl)benzyl)-3,9,15,21-tetraisobutyl-4,10,12,16,22,24-hexamethyl-1,7,13,19-tetraoxa-4,10,16,22-tetraazacyclotetracosan-2,5,8,11,14,17,20,23-octaone], the minimal effective concentration is reported as 0.01 to 0.1 µM. Cc1cnn(Cc2ccc(C[C@H]3OC(=O)[C@H](CC(C)C)N(C)C(=O)[C@@H](C)OC(=O)[C@H](CC(C)C)N(C)C(=O)[C@@H](Cc4ccc(Cn5cc(-c6ccccc6)cn5)cc4)OC(=O)[C@H](CC(C)C)N(C)C(=O)[C@@H](C)OC(=O)[C@H](CC(C)C)N(C)C3=O)cc2)c1 [Example 1a-19, (3S,6R,9S,12R,15S,18R,21S,24R)-3,9,15,21-tetraisobutyl-4,6,10,16,18,22-hexamethyl-12-(4-((4-methyl-1H-pyrazol-1-yl)methyl)benzyl)-24-(4-((4-phenyl-1H-pyrazol-1-yl)methyl)benzyl)-1,7,13,19-tetraoxa-4,10,16,22-tetraazacyclotetracosan-2,5,8,11,14,17,20,23-octaone] showed a minimal effective concentration of 0.01 to 0.1 µM. Cc1cnn(Cc2ccc(C[C@H]3OC(=O)[C@H](CC(C)C)N(C)C(=O)[C@@H](C)OC(=O)[C@H](CC(C)C)N(C)C(=O)[C@@H](Cc4ccc(Cn5cc(-c6ccc(F)cc6)cn5)cc4)OC(=O)[C@H](CC(C)C)N(C)C(=O)[C@@H](C)OC(=O)[C@H](CC(C)C)N(C)C3=O)cc2)c1 [Example 1a-22, (3S,6R,9S,12R,15S,18R,21S,24R)-6-(4-((4-(4-fluorophenyl)-1H-pyrazol-1-yl)methyl)benzyl)-3,9,15,21-tetraisobutyl-4,10,12,16,22,24-hexamethyl-18-(4-((4-methyl-1H-pyrazol-1-yl)methyl)benzyl)-1,7,13,19-tetraoxa-4,10,16,22-tetraazacyclotetracosan-2,5,8,11,14,17,20,23-octaone] was tested, and the minimal effective concentration was 0.01 to 0.1 µM. For Cc1cnn(Cc2ccc(C[C@H]3OC(=O)[C@H](CC(C)C)N(C)C(=O)[C@@H](C)OC(=O)[C@H](CC(C)C)N(C)C(=O)[C@@H](Cc4ccc(Cn5nc(C)c(S(=O)(=O)N6CCCC6)c5C)cc4)OC(=O)[C@H](CC(C)C)N(C)C(=O)[C@@H](C)OC(=O)[C@H](CC(C)C)N(C)C3=O)cc2)c1 [Example 1a-23, (3S,6R,9S,12R,15S,18R,21S,24R)-6-(4-((3,5-dimethyl-4-(pyrrolidin-1-ylsulfonyl)-1H-pyrazol-1-yl)methyl)benzyl)-3,9,15,21-tetraisobutyl-4,10,12,16,22,24-hexamethyl-18-(4-((4-methyl-1H-pyrazol-1-yl)methyl)benzyl)-1,7,13,19-tetraoxa-4,10,16,22-tetraazacyclotetracosan-2,5,8,11,14,17,20,23-octaone], the minimal effective concentration was 0.01 to 0.1 µM. With Cc1cnn(Cc2ccc(C[C@H]3OC(=O)[C@H](CC(C)C)N(C)C(=O)[C@@H](C)OC(=O)[C@H](CC(C)C)N(C)C(=O)[C@@H](Cc4ccc(Cn5cc(Br)cn5)cc4)OC(=O)[C@H](CC(C)C)N(C)C(=O)[C@@H](C)OC(=O)[C@H](CC(C)C)N(C)C3=O)cc2)c1 [Example 1a-24, (3S,6R,9S,12R,15S,18R,21S,24R)-6-(4-((4-bromo-1H-pyrazol-1-yl)methyl)benzyl)-3,9,15,21-tetraisobutyl-4,10,12,16,22,24-hexamethyl-18-(4-((4-methyl-1H-pyrazol-1-yl)methyl)benzyl)-1,7,13,19-tetraoxa-4,10,16,22-tetraazacyclotetracosan-2,5,8,11,14,17,20,23-octaone] the minimal effective concentration was 0.001 to 0.01 µM. Work on Cc1cnn(Cc2ccc(C[C@H]3OC(=O)[C@H](CC(C)C)N(C)C(=O)[C@@H](C)OC(=O)[C@H](CC(C)C)N(C)C(=O)[C@@H](Cc4ccc(Cn5nc(C)c(S(=O)(=O)N6CCCCC6)c5C)cc4)OC(=O)[C@H](CC(C)C)N(C)C(=O)[C@@H](C)OC(=O)[C@H](CC(C)C)N(C)C3=O)cc2)c1 [Example 1a-25, (3S,6R,9S,12R,15S,18R,21S,24R)-6-(4-((3,5-dimethyl-4-(piperidin-1-ylsulfonyl)-1H-pyrazol-1-yl)methyl)benzyl)-3,9,15,21-tetraisobutyl-4,10,12,16,22,24-hexamethyl-18-(4-((4-methyl-1H-pyrazol-1-yl)methyl)benzyl)-1,7,13,19-tetraoxa-4,10,16,22-tetraazacyclotetracosan-2,5,8,11,14,17,20,23-octaone] yielded a minimal effective concentration of 0.01 to 0.1 µM. Cc1cnn(Cc2ccc(C[C@H]3OC(=O)[C@H](CC(C)C)N(C)C(=O)[C@@H](C)OC(=O)[C@H](CC(C)C)N(C)C(=O)[C@@H](Cc4ccc(Cn5ccc(-c6ccccc6)n5)cc4)OC(=O)[C@H](CC(C)C)N(C)C(=O)[C@@H](C)OC(=O)[C@H](CC(C)C)N(C)C3=O)cc2)c1 [Example 1a-28, (3S,6R,9S,12R,15S,18R,21S,24R)-3,9,15,21-tetraisobutyl-4,6,10,16,18,22-hexamethyl-12-(4-((4-methyl-1H-pyrazol-1-yl)methyl)benzyl)-24-(4-((3-phenyl-1H-pyrazol-1-yl)methyl)benzyl)-1,7,13,19-tetraoxa-4,10,16,22-tetraazacyclotetracosan-2,5,8,11,14,17,20,23-octaone] was tested, and the minimal effective concentration was 0.01 to 0.1 µM. In the case of Cc1cnn(Cc2ccc(C[C@H]3OC(=O)[C@H](CC(C)C)N(C)C(=O)[C@@H](C)OC(=O)[C@H](CC(C)C)N(C)C(=O)[C@@H](Cc4ccc(Cn5ccc(C(F)(F)F)n5)cc4)OC(=O)[C@H](CC(C)C)N(C)C(=O)[C@@H](C)OC(=O)[C@H](CC(C)C)N(C)C3=O)cc2)c1 [Example 1a-29, (3S,6R,9S,12R,15S,18R,21S,24R)-3,9,15,21-tetraisobutyl-4,6,10,16,18,22-hexamethyl-12-(4-((4-methyl-1H-pyrazol-1-yl)methyl)benzyl)-24-(4-((3-(trifluoromethyl)-1H-pyrazol-1-yl)methyl)benzyl)-1,7,13,19-tetraoxa-4,10,16,22-tetraazacyclotetracosan-2,5,8,11,14,17,20,23-octaone], the minimal effective concentration is reported as 0.01 to 0.1 µM.
